Data published in ChEMBL document CHEMBL1759962, “Anti-inflammatory effect of soyasaponins through suppressing nitric oxide production in LPS-stimulated RAW 264.7 cells by attenuation of NF-κB-mediated nitric oxide synthase expression” (Bioorg Med Chem Lett, 2011).
Activity calls are given as the source filed them. The calls are words filed in the database; no cut-off is given here.

How the values were obtained:
[1] = tested on: RAW264.7; experiment: Inhibition of iNOS mRNA expression in LPS-stimulated mouse RAW264.7 cells at 100 ug/ml after 24 hrs by real time fluorescent quantitative real time PCR relative to negative control; assay type: functional
[2] = molecular target: T1, Nitric oxide synthase, inducible (Mus musculus) (UniProt P29477); experiment: Inhibition of iNOS activity in LPS-stimulated mouse RAW264.7 cells assessed as conversion of L-[…] arginine to L-[3H] citruline per mg of protein at 25 ug/ml after 24 hrs; assay type: cell-based
T1 sequence (whole entry): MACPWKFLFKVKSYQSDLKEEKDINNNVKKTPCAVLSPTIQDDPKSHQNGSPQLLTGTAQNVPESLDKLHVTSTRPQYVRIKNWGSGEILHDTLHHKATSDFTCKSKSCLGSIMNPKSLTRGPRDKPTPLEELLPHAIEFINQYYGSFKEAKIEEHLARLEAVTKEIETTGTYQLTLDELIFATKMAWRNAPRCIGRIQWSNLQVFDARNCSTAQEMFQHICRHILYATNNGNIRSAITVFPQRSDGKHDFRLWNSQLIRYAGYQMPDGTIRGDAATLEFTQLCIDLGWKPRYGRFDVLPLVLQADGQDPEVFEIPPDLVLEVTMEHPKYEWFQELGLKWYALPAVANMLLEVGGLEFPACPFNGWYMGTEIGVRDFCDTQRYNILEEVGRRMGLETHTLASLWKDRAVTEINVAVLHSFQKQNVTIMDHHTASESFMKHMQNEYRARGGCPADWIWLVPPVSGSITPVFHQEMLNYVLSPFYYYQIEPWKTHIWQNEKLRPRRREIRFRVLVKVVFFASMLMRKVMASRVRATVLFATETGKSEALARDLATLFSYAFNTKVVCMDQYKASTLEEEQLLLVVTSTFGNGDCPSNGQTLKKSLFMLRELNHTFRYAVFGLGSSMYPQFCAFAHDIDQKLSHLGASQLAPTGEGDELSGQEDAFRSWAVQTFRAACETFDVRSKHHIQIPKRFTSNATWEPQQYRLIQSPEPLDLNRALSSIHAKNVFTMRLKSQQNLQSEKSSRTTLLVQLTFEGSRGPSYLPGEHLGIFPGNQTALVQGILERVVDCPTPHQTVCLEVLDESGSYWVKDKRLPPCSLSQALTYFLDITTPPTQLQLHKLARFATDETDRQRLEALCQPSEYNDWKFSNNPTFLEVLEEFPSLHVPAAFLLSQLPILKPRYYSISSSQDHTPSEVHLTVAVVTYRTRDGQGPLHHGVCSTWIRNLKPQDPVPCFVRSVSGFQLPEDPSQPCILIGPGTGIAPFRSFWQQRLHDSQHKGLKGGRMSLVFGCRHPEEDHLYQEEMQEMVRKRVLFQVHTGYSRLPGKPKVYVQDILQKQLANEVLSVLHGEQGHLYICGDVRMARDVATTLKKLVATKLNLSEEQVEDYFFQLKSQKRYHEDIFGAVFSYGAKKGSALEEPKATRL

[3] = tested on: RAW264.7; experiment: Inhibition of iNOS mRNA expression in LPS-stimulated mouse RAW264.7 cells at 25 ug/ml after 24 hrs by real time fluorescent quantitative real time PCR relative to negative control; assay type: functional
[4] = tested on: RAW264.7; experiment: Cytotoxicity against mouse RAW264.7 cells at 25 to 200 ug/ml after 24 hrs by MTT assay; assay type: cell-based; settings: raw264.7, 24 h
[5] = tested on: RAW264.7; experiment: Antiinflammatory activity in mouse RAW264.7 cells assessed as inhibition of LPS-induced IL-6 release by ELISA; assay type: functional, cell-based
[6] = molecular target: T1, Nitric oxide synthase, inducible (Mus musculus); experiment: Inhibition of iNOS activity in LPS-stimulated mouse RAW264.7 cells assessed as conversion of L-[…] arginine to L-[3H] citruline per mg of protein at 50 ug/ml after 24 hrs; assay type: cell-based
[7] = tested on: RAW264.7; experiment: Inhibition of iNOS mRNA expression in LPS-stimulated mouse RAW264.7 cells at 200 ug/ml after 24 hrs by real time fluorescent quantitative real time PCR relative to negative control; assay type: functional
[8] = molecular target: T1, Nitric oxide synthase, inducible (Mus musculus); experiment: Inhibition of iNOS-mediated nitric oxide production in LPS-stimulated mouse RAW264.7 cells at 25 to 200 ug/ml measured after 24 hrs by Griess reaction method; assay type: cell-based
[9] = tested on: RAW264.7; experiment: Antiinflammatory activity in mouse RAW264.7 cells assessed as inhibition of LPS-induced IL-1 release by ELISA; assay type: functional, cell-based
[10] = tested on: RAW264.7; experiment: Antiinflammatory activity in mouse RAW264.7 cells assessed as inhibition of LPS-induced TNFalpha release by ELISA; assay type: functional, cell-based
[11] = tested on: RAW264.7; experiment: Inhibition of iNOS mRNA expression in LPS-stimulated mouse RAW264.7 cells at 50 ug/ml after 24 hrs by real time fluorescent quantitative real time PCR relative to negative control; assay type: functional
[12] = molecular target: T1, Nitric oxide synthase, inducible (Mus musculus); experiment: Inhibition of iNOS activity in LPS-stimulated mouse RAW264.7 cells assessed as conversion of L-[…] arginine to L-[3H] citruline per mg of protein at 100 ug/ml after 24 hrs; assay type: cell-based
[13] = molecular target: T1, Nitric oxide synthase, inducible (Mus musculus); experiment: Inhibition of iNOS activity in LPS-stimulated mouse RAW264.7 cells assessed as conversion of L-[…] arginine to L-[3H] citruline per mg of protein at 200 ug/ml after 24 hrs; assay type: cell-based
[14] = molecular target: T1, Nitric oxide synthase, inducible (Mus musculus); experiment: Inhibition of iNOS-mediated nitric oxide production in LPS-stimulated mouse RAW264.7 cells measured after 24 hrs by Griess reaction method; assay type: cell-based
[15] = molecular target: T1, Nitric oxide synthase, inducible (Mus musculus); experiment: Inhibition of iNOS activity in LPS-stimulated mouse RAW264.7 cells assessed as conversion of L-[…] arginine to L-[3H] citruline per mg of protein after 24 hrs; assay type: cell-based
[16] = tested on: RAW264.7; experiment: Inhibition of LPS-induced NF-kappaB activation in mouse RAW264.7 cells expressing pNF-kappaB-LUC at 25 to 200 ug/ml after 24 hrs by luciferase reporter gene assay relative to unstimulated cells; assay type: cell-based
[17] = molecular target: T1, Nitric oxide synthase, inducible (Mus musculus); experiment: Inhibition of iNOS activity in LPS-stimulated mouse RAW264.7 cells assessed as conversion of L-[…] arginine to L-[3H] citruline per mg of protein at 10 ug/ml after 24 hrs; assay type: cell-based
[18] = molecular target: T1, Nitric oxide synthase, inducible (Mus musculus); experiment: Inhibition of iNOS-mediated nitric oxide production in LPS-stimulated mouse RAW264.7 cells at 10 ug/ml measured after 24 hrs by Griess reaction method; assay type: cell-based

| SMILES | fold change (FC) [1] | Activity [2] | fold change (FC) [3] | Activity [4] | inhibition [5] | Activity [6] | fold change (FC) [7] | inhibition [8] | inhibition [9] | inhibition [10] | fold change (FC) [11] | Activity [12] | Activity [13] | inhibition [14] | inhibition [15] | inhibition [16] | Activity [17] | inhibition [18] |
| --- | --- | --- | --- | --- | --- | --- | --- | --- | --- | --- | --- | --- | --- | --- | --- | --- | --- | --- |
| CC1(C)C[C@@H](O)[C@]2(C)CC[C@]3(C)C(=CC[C@@H]4[C@@]5(C)CC[C@H](O)[C@](C)(CO)[C@@H]5CC[C@]43C)[C@@H]2C1 [SOYASAPOGENOL B] | 14.7 | 27.4 pmol/min | 14.7 | Non-toxic | inactive | 26.5 pmol/min | 15.4 | inactive | inactive | inactive | 14.8 | 26.6 pmol/min | 27.1 pmol/min |  |  |  |  |  |
| CC1(C)C[C@H]2C3=CC[C@@H]4[C@@]5(C)CC[C@H](O[C@@H]6O[C@H](C(=O)O)[C@@H](O)[C@H](O)[C@H]6O[C@@H]6O[C@H](CO)[C@@H](O)[C@@H](O)[C@H]6O)[C@](C)(CO)[C@@H]5CC[C@@]4(C)[C@]3(C)CC[C@@]2(C)[C@H](O[C@@H]2OC[C@H](O)[C@@H](O)[C@H]2O[C@@H]2O[C@H](CO)[C@@H](O)[C@@H](O)[C@H]2O)[C@@H]1O [SOYASAPONIN A2] | 5.7 | 23.6 pmol/min | 11.4 | Non-toxic | inactive | 19 pmol/min | 4.4 |  | inactive | Active | 10.7 | 14 pmol/min | 9.3 pmol/min | Dose-dependent effect | Dose-dependent effect | Dose-dependent effect |  |  |
| C[C@@H]1O[C@@H](O[C@H]2[C@H](O[C@H]3[C@H](O[C@H]4CC[C@@]5(C)[C@@H](CC[C@]6(C)[C@@H]5CC=C5[C@@H]7CC(C)(C)C[C@@H](O)[C@]7(C)CC[C@]56C)[C@@]4(C)CO)O[C@H](C(=O)O)[C@@H](O)[C@@H]3O)O[C@H](CO)[C@H](O)[C@@H]2O)[C@H](O)[C@H](O)[C@H]1O [SOYASAPONIN I] | 6.8 | 24 pmol/min | 11.1 | Non-toxic | inactive | 16.6 pmol/min | 5.6 |  | inactive | Active | 8.8 | 11.7 pmol/min | 9.2 pmol/min | Dose-dependent effect | Dose-dependent effect | Dose-dependent effect |  |  |
| CC1(C)C[C@H]2C3=CC[C@@H]4[C@@]5(C)CC[C@H](O)[C@](C)(CO)[C@@H]5CC[C@@]4(C)[C@]3(C)CC[C@@]2(C)[C@H](O)[C@@H]1O [SOYASAPOGENOL A] | 15.1 | 27.7 pmol/min | 15.1 | Non-toxic | inactive | 27 pmol/min | 15.3 | inactive | inactive | inactive | 15 | 26.9 pmol/min | 27 pmol/min |  |  |  |  |  |
| CC1(C)C[C@H]2C3=CC[C@@H]4[C@@]5(C)CC[C@H](O[C@@H]6O[C@H](C(=O)O)[C@@H](O)[C@H](O)[C@H]6O[C@@H]6O[C@H](CO)[C@H](O)[C@H](O)[C@H]6O[C@@H]6O[C@H](CO)[C@@H](O)[C@H](O)[C@H]6O)[C@](C)(CO)[C@@H]5CC[C@@]4(C)[C@]3(C)CC[C@@]2(C)[C@H](O[C@@H]2OC[C@H](O)[C@@H](O)[C@H]2O[C@@H]2O[C@H](CO)[C@@H](O)[C@@H](O)[C@H]2O)[C@@H]1O [SOYASAPONIN A1] | 7.5 | 22.3 pmol/min | 11.6 | Non-toxic | inactive | 18.3 pmol/min | 5.1 |  | inactive | Active | 11.3 | 11.4 pmol/min | 6.2 pmol/min | Dose-dependent effect | Dose-dependent effect | Dose-dependent effect |  |  |
| N=C(N)NN |  |  |  |  |  |  |  |  |  |  |  |  |  |  |  |  | 2.7 pmol/min | inactive |
